Reference: ChEMBL document CHEMBL5260825, “Chemical Constituents of Bryophytes: Structures and Biological Activity” (J Nat Prod, 2018)
Converted amounts (≈) assume the structure as drawn. “And” between values parts separate entries of the source, which are not always exact repeats. Identical values can stand only once. One block for each compound: values may come before it.

Legend:
[1] = Toxicity in brine shrimp assessed as lethality; conditions: artemia salina
RAW264.7 = test: Inhibition of LPS-induced NO production in mouse RAW264.7 cells incubated for 24 hrs by Griess reagent based assay; format: functional, cell-based; conditions: RAW264.7, 24 h
[2] = Antioxidant activity assessed as DPPH radical scavenging activity; format: functional
HL-60 = test: Antiproliferative activity against human HL-60 cells assessed as cell growth inhibition; format: functional, cell-based
Bacillus subtilis = test: Antibacterial activity against Bacillus subtilis assessed as inhibition of bacterial growth; format: functional
Staphylococcus aureus = test: Antibacterial activity against Staphylococcus aureus assessed as inhibition of bacterial growth by agar diffusion method; format: functional
[3] = system: Trypanosoma brucei brucei; test: […] activity against Trypanosoma brucei brucei GUTat 3.1 assessed as inhibition of parasite growth measured after 72 hrs by alamar blue assay; format: functional, organism-based; conditions: GUTat 3.1, time 72 hrs, read-out: ED50 (the source's name)
Candida albicans [4] = test: Antifungal activity against Candida albican ATCC10231 assessed as inhibition of fungal growth by measuring minimal inhibitory quantity by microdilution method; format: functional
Candida albicans [5] = test: Antifungal activity against Candida albican ATCC10231 assessed as inhibition of fungal growth by microdilution method; format: functional
Candida albicans [6] = test: Antifungal activity against Candida albicans assessed as inhibition of fungal growth by MTT assay; format: functional
[7] = system: Trichophyton mentagrophytes; test: Antifungal activity against Trichophyton mentagrophytes assessed as inhibition of microbial growth; format: functional
DNA polymerase beta = DNA polymerase beta (Homo sapiens, UniProt P06746); test: Inhibition of DNA polymerase beta (unknown origin)
[8] = system: Human immunodeficiency virus 1; test: Antiviral activity against HIV-1; format: functional, organism-based
[9] = molecular target: T1, Polyunsaturated fatty acid 5-lipoxygenase (Homo sapiens) (UniProt P09917); test: Inhibition of ALOX5 (unknown origin) at 0.000001 M relative to control; conditions: dose 1 µM
T1 sequence (whole entry): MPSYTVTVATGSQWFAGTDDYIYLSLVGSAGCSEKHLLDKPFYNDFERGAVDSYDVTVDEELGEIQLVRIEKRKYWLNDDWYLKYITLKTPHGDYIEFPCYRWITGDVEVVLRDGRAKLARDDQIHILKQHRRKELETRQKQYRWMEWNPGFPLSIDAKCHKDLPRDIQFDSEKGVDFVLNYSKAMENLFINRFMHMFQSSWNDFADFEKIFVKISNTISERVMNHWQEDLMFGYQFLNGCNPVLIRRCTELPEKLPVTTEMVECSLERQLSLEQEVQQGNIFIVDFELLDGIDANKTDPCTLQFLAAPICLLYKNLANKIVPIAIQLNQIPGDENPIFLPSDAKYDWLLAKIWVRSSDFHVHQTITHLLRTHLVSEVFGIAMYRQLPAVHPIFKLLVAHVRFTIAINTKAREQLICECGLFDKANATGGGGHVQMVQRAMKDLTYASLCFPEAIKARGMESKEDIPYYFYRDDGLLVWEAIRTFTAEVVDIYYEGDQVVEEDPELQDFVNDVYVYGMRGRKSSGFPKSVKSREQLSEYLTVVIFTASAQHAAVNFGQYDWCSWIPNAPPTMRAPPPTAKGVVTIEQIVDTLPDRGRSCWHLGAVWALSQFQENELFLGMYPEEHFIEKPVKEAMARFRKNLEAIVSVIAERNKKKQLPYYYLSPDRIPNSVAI

Cladosporium cucumerinum = test: Antifungal activity against Cladosporium cucumerinum assessed as inhibition of microbial growth by bioautographic TLC method; format: functional
[10] = molecular target: Cathepsin B (Homo sapiens) (UniProt P07858); test: Inhibition of Cathepsin B (unknown origin) at 0.00001 M relative to control; conditions: dose 10 µM
[11] = Inhibition of superoxide anion radical release in rabbit polymorphonuclear leucocytes; format: functional, cell-based; conditions: Oryctolagus cuniculus, Polymorphonuclear neutrophil
[12] = molecular target: Procathepsin L (Homo sapiens) (UniProt P07711); test: Inhibition of Cathepsin L (unknown origin) at 0.00001 M relative to control; conditions: dose 10 µM
[13] = system: Peritoneal macrophage cell; test: Inhibition of superoxide anion radical release in guinea pig peritoneal macrophages; format: functional, cell-based; conditions: Cavia porcellus
[14] = molecular target: Calmodulin-1 (Homo sapiens) (UniProt P0DP23); test: Inhibition of calmodulin (unknown origin)
[15] = system: Trypanosoma brucei brucei; test: Antitrypanosomal activity against bloodstream Trypanosoma brucei brucei assessed as parasite growth inhibition measured after 72 hrs by alamar blue assay; format: functional, organism-based
KB = test: Antiproliferative activity against human KB cells assessed as cell growth inhibition; format: functional, cell-based
Cyclooxygenase = Cyclooxygenase (Homo sapiens, UniProt P35354+P23219); test: Inhibition of COX (unknown origin); format: protein assay
[16] = system: Panel NCI-60 (60 carcinoma cell lines); test: Antiproliferative activity against human Panel NCI-60 (60 carcinoma cell lines) assessed as cell growth inhibition; format: functional
A549 = test: Antiproliferative activity against human A549 cells assessed as cell growth inhibition; format: functional; conditions: read-out: ED50 (the source's name)
RPMI-7951 = test: Antiproliferative activity against human RPMI-7951 cells assessed as cell growth inhibition; format: functional; conditions: read-out: ED50 (the source's name)
Candida albicans [17] = test: Antifungal activity against Candida albicans assessed as inhibition of fungal growth by MTT method; format: functional
P388 = test: Antiproliferative activity against mouse P388 cells assessed as cell growth inhibition; format: functional, cell-based
[18] = system: Trichostrongylus colubriformis; test: Anthelmintic activity against third stage larvae of Trichostrongylus colubriformis by microscope based analysis; format: functional, organism-based
U-251 = test: Antiproliferative activity against human U-251MG cells assessed as cell growth inhibition; format: functional; conditions: read-out: ED50 (the source's name)
HT-29 = test: Antiproliferative activity against human HT-29 cells assessed as cell growth inhibition; format: functional, cell-based; conditions: read-out: ED50 (the source's name)

Sequence of Procathepsin L (Homo sapiens) (P07711 114-333 limits assumed): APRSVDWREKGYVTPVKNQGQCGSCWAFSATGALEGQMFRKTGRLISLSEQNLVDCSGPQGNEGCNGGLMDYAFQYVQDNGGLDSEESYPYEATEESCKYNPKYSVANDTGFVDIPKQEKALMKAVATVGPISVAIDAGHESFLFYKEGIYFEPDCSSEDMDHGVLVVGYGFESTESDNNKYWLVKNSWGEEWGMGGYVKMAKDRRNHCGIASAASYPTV

SMILES: CC(=O)N1CCN(c2ccc(OCC3COC(Cn4ccnc4)(c4ccc(Cl)cc4Cl)O3)cc2)CC1 (stereo not drawn) [KETOCONAZOLE]
LC50 [1]: 14.9 ppm

SMILES: Cc1cc([C@@]2(C)CCCC2(C)C)c(O)c(O)c1Cc1cc(O)c(O)c([C@@]2(C)CCCC2(C)C)c1
IC50 (RAW264.7): 4.1 µM
IC50 [2]: 2.7 µg/mL (≈ 5.79 µM)
IC50 (HL-60): 2.4 µg/mL (≈ 5.14 µM)
MIC (Bacillus subtilis): 2 µg/mL (≈ 4.29 µM)
diameter of the inhibition zone (DIZ) (Staphylococcus aureus): 13 mm

EC50 [3]: 1.5 µg/mL (≈ 1.16 µM)
SMILES: Cc1ccc(C(=O)Nc2ccc(S(=O)(=O)O)c3cc(S(=O)(=O)O)cc(S(=O)(=O)O)c23)cc1NC(=O)c1cccc(NC(=O)Nc2cccc(C(=O)Nc3cc(C(=O)Nc4ccc(S(=O)(=O)O)c5cc(S(=O)(=O)O)cc(S(=O)(=O)O)c45)ccc3C)c2)c1 [SURAMIN]

MIC (Candida albicans [4]): 0.25 µg
MIC (Candida albicans [5]): 16 µg/mL
SMILES: Oc1cc2ccc1Oc1cccc(c1)CCc1ccc(cc1)Oc1cc(ccc1O)CC2

SMILES: Oc1ccc(CCc2c(Cl)cc(Cl)c(O)c2Cl)cc1Cl
LC50 [1]: 0.42 ppm

MIC [7]: 0.5 µg/mL
SMILES: Oc1ccc2cc1Oc1ccc(cc1)CCc1ccc(c(O)c1O)Oc1cccc(c1)CC2
MID (Candida albicans [6]): 0.2 µg/mL

IC50 (DNA polymerase beta): 14.4 µM
IC50 [8]: 5.3 µg/mL (≈ 11.6 µM)
inhibition [9]: 4%
SMILES: Oc1cc2cc(c1O)Oc1ccc(cc1)CCc1cccc(O)c1Oc1cccc(c1)CC2O (stereo not drawn)

MIC (Cladosporium cucumerinum): 3 µg/mL
SMILES: C=C1CC[C@H]2C(=C)CC[C@@H]3[C@H](OC(=O)[C@@H]3C)[C@@H]12

inhibition [10]: 32%
IC50 [11]: 0.07 µg/mL (≈ 0.231 µM)
inhibition [12]: 63%
SMILES: C=CC(=C)CC[C@]1(C)[C@H]2CCC=C(C)[C@]2(C)CC[C@H]1C(=O)O
IC50 [13]: 25 µg/mL (≈ 82.7 µM)

ID50 [14]: 20 µg/mL (≈ 45.6 µM)
inhibition [9]: 4%
SMILES: COc1ccc2c(c1)CCc1ccc(cc1)Oc1cc(ccc1O)CCc1ccc-2c(O)c1

SMILES: COc1cc([C@@]2(C)CCCC2(C)C)cc(O)c1C
IC50 (RAW264.7): 4.1 µM
IC50 [15]: 0.93 µg/mL (≈ 3.74 µM)

IC50 (DNA polymerase beta): 14.4 µM
IC50 [8]: 5.3 µg/mL (≈ 11.6 µM)
IC50 (KB): 3.2 µM
IC50 (Cyclooxygenase): 55.9 µM
SMILES: Oc1cc2cc(c1O)Oc1ccc(cc1)CCc1ccc(O)c(O)c1Oc1cccc(c1)CC2 [MARCHANTIN B]
MID (Candida albicans [6]): 4 µg/mL

SMILES: C=C1C(=O)C2=C[C@H]1C[C@H](O)C(=O)[C@]1(C)CCCC(C)(C)[C@H]1C[C@H]2O
GI50 [16]: 1.5 µM

EC50 (A549): 1 µg/mL (≈ 2.4 µM)
SMILES: COc1cc(OC)c2c3c1-c1c(O)cccc1[C@@H]1Oc4ccccc4[C@@H](C[C@@H]2OC)[C@@H]31
EC50 (RPMI-7951): 1 µg/mL (≈ 2.4 µM)

MIC (Candida albicans [17]): 2 µg/mL (≈ 4.38 µM)
SMILES: CO[C@@H]1CC[C@]2(C)C3CCC4C(=CCC5C(C)(C)[C@H](O)CC[C@]45C)C[C@]3(C)CC[C@H]2C1(C)C (stereo partly drawn)

GI50 (P388): 0.27 µg/mL and 800 nM
IC50 (P388): 0.27 µg/mL (≈ 0.812 µM)
SMILES: C=C1C(=O)[C@]23O[C@@H]2[C@H]1CCC(=O)[C@]1(C)CCCC(C)(C)[C@H]1C[C@H]3O
GI50 [16]: 2.5 µM

MIC (Candida albicans [17]): 2 µg/mL (≈ 5.34 µM)
SMILES: COC(=O)c1c(C)cc(OC(=O)c2c(C)cc(O)c(C=O)c2O)c(C)c1O [ATRANORIN]

SMILES: CC1(C)CCC[C@]2(C)[C@@H](C=O)C(C=O)=CC[C@@H]12 [POLYGODIAL]
IC50 [18]: 70 µg/mL (≈ 299 µM)

SMILES: COc1ccc(CCc2c(Cl)ccc(O)c2Cl)cc1
LC50 [1]: 0.42 ppm

EC50 [3]: 2.27 µg/mL (≈ 12.5 µM)
SMILES: NCCCC(N)(C(=O)O)C(F)F (stereo not drawn) [EFLORNITHINE]

EC50 (U-251): 2 µg/mL (≈ 4.99 µM)
EC50 (HT-29): 1 µg/mL (≈ 2.5 µM)
SMILES: COc1cc(OC)c2c3c1C(=O)C[C@@H]1c4ccccc4O[C@@H](c4cccc(O)c4-2)[C@H]31
EC50 (RPMI-7951): 1 µg/mL (≈ 2.5 µM)
